“Also recorded” adds a separate entry of the source.
Columns and labels:
[1] = Clinical response to oral prednisone burst (FEV1 percent predicted); assay type: in vivo, human; details: for FEV1% change after Prednisone burst, (Mean ± SD): prednisone 20 mg by mouth twice daily for 7 days; for FEV1% change after Prednisone burst, (Mean ± SE): one week 40 mg/d oral prednisone
From the text: (§1) Study subjects. Thirty-nine adult asthmatics were enrolled in this study. […] Patients completed asthma questionnaires (ACQ) to assess their asthma control. […] Twelve healthy nonatopic subjects underwent bronchoscopy as controls. Smokers were excluded from participation in this study. Informed consent was obtained from all study participants before enrollment in this study.
Corticosteroid response of asthmatics was classified based on their prebronchodilator morning FEV1% predicted response to one week course of 40 mg/d oral prednisone.

[2] = Bronchodilator responsiveness (FEV1 reversal with albuterol); assay type: in vivo, human
From the text: as §1
26 adult asthma patients were enrolled. Sample collection involved assessment of patients with a clinical history of asthma, airflow limitation (baseline FEV1≤85% predicted) and either airway hyperresponsiveness (PC20 methacholine<8 mg/ml) or bronchodilator responsiveness (>12% improvement in FEV1% predicted after […] metered-dose inhaler albuterol).

[3] = tested on: peripheral blood monocytes from asthmatics; assay: Effects of inhibitors on MKP-1 and IL-8 mRNA induction by H. parainfluenzae and on cellular response to corticosteroids (real time PCR); assay type: cell-based, human; details: for cellular sensitivity to corticosteroids in vitro (MKP-1 mRNA induction by DEX) in the presence of H. parainfluenzae: inhibitor 1 h, bacteria 15 min, then 3 h DEX, FIG. 4C; for MKP-1 mRNA induction by H. parainfluenzae / IL-8 mRNA induction by H. parainfluenzae: monocytes preincubated with inhibitor 1 h (TAK1 inhibitor 2 μM, others 10 μM); for MKP-1 mRNA induction by H. parainfluenzae: bacteria to cell ratio 1:1, FIG. 4A; for IL-8 mRNA induction by H. parainfluenzae: bacteria to cell ratio 1:1, FIG. 4B
Method: Cell culture and treatment. Peripheral blood mononuclear cells (PBMC) were isolated from asthma patients. Monocytes were prepared by negative selection using Human Monocyte Isolation Kit II (Milteniyi Biotech Inc., Auburn, CA). BAL macrophages were enriched by 3 h plastic adhesion. Cell purity was ≥95%. In all experiments, monocytes and BAL macrophages were cultured in the X-VIVO™ 15 serum free medium overnight; medium was replaced with X-VIVO™ 15 medium without antibiotics prior to addition of bacteria. Bacteria were added to 10^6 cells/ml in culture at 0.1 or 1 bacteria per cell.
In vitro response to corticosteroids in the presence of bacteria. 0.5×10^6 monocytes or 2.5×10^5 BAL macrophages per condition were cultured overnight in X-VIVO™ 15 media, treated with 0.1 to 1 bacteria per cell or 10 ng/ml of E. coli strain 0111: B4 LPS (Sigma-Aldrich Corp) for 15 min and stimulated with 10^−6 M dexamethasone (DEX) for an additional 3 h still in the presence of bacteria. Following incubation the cells were preserved in RLT buffer (Qiagen, Inc., Valencia, CA). RNA was extracted using RNAEASYR Mini kit (Qiagen), and analyzed by real-time PCR as previously described (Goleva E et al., J Allergy Clin Immunol 2012; 129: 687-93e1) for the expression of corticosteroid-regulated targets mitogen activated kinase phosphatase 1 (MKP-1), and IL-8. 18s RNA was measured as a house keeping gene. All primers were purchased from Applied Biosystems (Life Technologies Corporation, Carlsbad, CA). Standard curves for gene targets were generated using the fluorescent data from two-fold serial dilutions of total RNA of the highest expression sample. Quantities of each target gene in test samples were normalized to the corresponding levels of the housekeeping gene (18s RNA) in each sample. Fold induction and fold suppression by DEX of selected gene targets was calculated for cells cultured in media, with LPS or with bacteria.
The effects of inhibitors on cellular response to corticosteroids. To examine whether MAPK inhibition or transforming growth factor beta associated kinase 1 (TAK1) inhibition reverses the corticosteroid resistant response to pathogenic microbes, monocytes were pretreated with either TAK1 inhibitor (5Z)-7-Oxozeaenol, Curvularia sp. (Calbiochem, EMD Serono, Inc., Rockland, MA) (2 μM), the p38 inhibitor, SB203580 (10 μM) (Calbiochem) or the cocktail of the three MAPK inhibitors (SB203580, p38 inhibitor; PD98059, MEK1/ERK inhibitor (Invitrogen, Life Technologies, Grand Island, NY) and SP600125, JNK inhibitor (InVivogen, San Diego, CA), all at 10 μM) for 1 h prior to stimulation with bacteria and cellular response to corticosteroids was evaluated by real time PCR as described above. To assess the efficacy of inhibitors on suppression of cell activation induced by bacteria cells were pretreated with inhibitors for 1 h or cultured in media, stimulated with H. parainfluenzae for 15 min. Protein lysates were prepared as described above. ERK and hsp27 phosphorylation as downstream targets for TAK1 and p38 MAPK activation, respectively, were assessed by Western blot as described in (Zhang Y et al., J Immunol 2012, in press; Li L B et al., J Allergy Clin Immunol 2004; 114: 1059-69; Zhang Y et al., J Biol Chem 2009; 284: 24542-52).
Toll-like receptor (TLR) engagement by bacteria is the major pathway of cell activation by bacteria (Akira S, Nat Rev Immunol 2004; 4: 499-511). TAK1 phosphorylation represents a key downstream TLR signaling branching point that controls both MAPK and NFKB pathway activation in the cells (Liew F Y et al., Nat Rev Immunol 2005; 5: 446-58). To address the role of TLR signaling pathways in MAPK and TAK1 activation by H. parainfluenzae and the alteration of cellular response to corticosteroids, asthmatic peripheral blood monocytes were preincubated with/without TAK1 and MAPK inhibitors for 1 hour, stimulated with bacteria followed by treatment with DEX or medium and analyzed by real time PCR.

ERK phosphorylation = assay: Western blot of ERK phosphorylation as downstream read out for TAK1 activation by H. parainfluenzae; assay type: cell-based, human; details: 2 μM inhibitor, 15 min H. para, bacteria to cell ratio 1:1, monocytes from asthma patients, FIG. 4D
Method: (§2) P38 mitogen activated protein kinase (MAPK) stimulation by bacteria. P38 MAPK activation in response to various concentrations of pathogenic and commensal bacteria as well as time course of p38 activation in response to these bacteria was determined. Cells were stimulated with 0.1 and 1 bacteria per cell, at kinetic time frames from 15 min to 3 h (monocytes), or after 3h of stimulation with bacteria (BAL macrophages). […] Protein concentration was determined by Bradford assay and cell lysates were analyzed for p-p38 MAPK expression by Western blot as described by us earlier (Zhang Y et al., J Immunol 2012, in press).
(§3) The effects of inhibitors on cellular response to corticosteroids. […] (Calbiochem, EMD Serono, Inc., Rockland, MA) (2 μM), the p38 inhibitor, SB203580 (10 μM) (Calbiochem) or the cocktail of the three MAPK inhibitors (SB203580, p38 inhibitor; PD98059, MEK1/ERK inhibitor (Invitrogen, Life Technologies, Grand Island, NY) and SP600125, JNK inhibitor (InVivogen, San Diego, CA), all at 10 μM) for 1 h prior to stimulation with bacteria and cellular response to corticosteroids was evaluated by real time PCR as described above. […]

hsp27 phosphorylation = assay: Western blot of hsp27 phosphorylation as downstream read out for p38 MAPK activation by H. parainfluenzae; assay type: cell-based, human; details: 10 μM inhibitor, 15 min H. para, bacteria to cell ratio 1:1, monocytes from asthma patients, FIG. 4D
Method: as §2, §3

SMILES: C[C@]12C=CC(=O)C=C1CC[C@@H]1[C@@H]2C(=O)C[C@@]2(C)[C@H]1CC[C@]2(O)C(=O)CO [Prednisone, prednisone]
- FEV1% change after Prednisone burst, (Mean ± SD) ([1]; CR asthma, n = 29): −0.2±5.9%
- FEV1% change after Prednisone burst, (Mean ± SD) ([1]; CS asthma, n = 10): 31.0±23.5%
- FEV1% change after Prednisone burst, (Mean ± SE) ([1]; SR asthma, n = 12): 0.8 ± 1.9 %
- FEV1% change after Prednisone burst, (Mean ± SE) ([1]; SS asthma, n = 13): 42.2 ± 10.0%

SMILES: CC(C)(C)NCC(O)c1ccc(O)c(CO)c1 (centres unmarked) [Albuterol, albuterol]
- FEV1% reversal with Albuterol, (Mean ± SD) ([2]; CR asthma, n = 29, 180 μg albuterol inhaled): 15.0 ± 9.4%
- FEV1% reversal with Albuterol, (Mean ± SD) ([2]; CS asthma, n = 10, 180 μg albuterol inhaled): 37.2 ± 24.7%
- FEV1% reversal with Albuterol, (Mean ± SD) ([2]; Normal controls, n = 12): 5.1 ± 2.4%
- FEV1% reversal with Albuterol, (Mean ± SE) ([2]; SR asthma, n = 12): 13.3 ± 2.1 %
- FEV1% reversal with Albuterol, (Mean ± SE) ([2]; SS asthma, n = 13): 41.1 ± 8.7%

SMILES: COc1cc(O)c2c(c1)/C=C/C[C@H](O)[C@H](O)C(=O)/C=C\C[C@H](C)OC2=O [TAK1 inhibitor, (5Z)-7-Oxozeaenol]
- cellular sensitivity to corticosteroids in vitro (MKP-1 mRNA induction by DEX) in the presence of H. parainfluenzae [3]: restoration of cellular sensitivity to corticosteroids; also recorded: steroid sensitive
- MKP-1 mRNA induction by H. parainfluenzae [3]: significant inhibition
- IL-8 mRNA induction by H. parainfluenzae [3]: significant inhibition
- ERK phosphorylation by H. parainfluenzae (ERK phosphorylation): fully inhibited

SMILES: C[S+]([O-])c1ccc(-c2nc(-c3ccncc3)c(-c3ccc(F)cc3)[nH]2)cc1 (centres unmarked) [P38 MAPK inhibitor, SB203580]
- cellular sensitivity to corticosteroids in vitro (MKP-1 mRNA induction by DEX) in the presence of H. parainfluenzae [3]: failed to restore
- MKP-1 mRNA induction by H. parainfluenzae [3]: reduced
- IL-8 mRNA induction by H. parainfluenzae [3]: reduced
- hsp27 phosphorylation by H. parainfluenzae (hsp27 phosphorylation): fully inhibited

From patent publication US20250003969A1, “METHODS TO IDENTIFY AND TREAT SUBJECTS HAVING CORTICOSTEROID-RESISTANT INFLAMMATORY DISEASES” (priority 2013, published 2025)
